Laboratory results as given in patent US9908897B2, “Spirocyclic derivatives” (CHRONOS THERAPEUTICS LIMITED, priority 2014, dated 2018).

Key:
[1] = target: human dopamine transporter (DAT) (Homo sapiens (Human), UniProt Q01959); assay: Scintillation Proximity Assay (SPA) competition binding, human DAT; details: recombinant hDAT-CHO membranes, [3H]WIN-35,428
Summary of the method: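 SPA binding on membranes from CHO cells stably expressing human DAT, with 5 nM [3H]WIN-35,428, WGA-PVT beads and 0.02% BSA in HEPES/NaCl/KCl buffer pH 7.4.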

[2] = target: human norepinephrine transporter (NET) (Homo sapiens (Human), UniProt P23975); assay: Scintillation Proximity Assay (SPA) competition binding, human NET; details: recombinant hNET-CHO membranes, [3H]nisoxetine
human norepinephrine transporter (NET), sequence (P23975 whole entry): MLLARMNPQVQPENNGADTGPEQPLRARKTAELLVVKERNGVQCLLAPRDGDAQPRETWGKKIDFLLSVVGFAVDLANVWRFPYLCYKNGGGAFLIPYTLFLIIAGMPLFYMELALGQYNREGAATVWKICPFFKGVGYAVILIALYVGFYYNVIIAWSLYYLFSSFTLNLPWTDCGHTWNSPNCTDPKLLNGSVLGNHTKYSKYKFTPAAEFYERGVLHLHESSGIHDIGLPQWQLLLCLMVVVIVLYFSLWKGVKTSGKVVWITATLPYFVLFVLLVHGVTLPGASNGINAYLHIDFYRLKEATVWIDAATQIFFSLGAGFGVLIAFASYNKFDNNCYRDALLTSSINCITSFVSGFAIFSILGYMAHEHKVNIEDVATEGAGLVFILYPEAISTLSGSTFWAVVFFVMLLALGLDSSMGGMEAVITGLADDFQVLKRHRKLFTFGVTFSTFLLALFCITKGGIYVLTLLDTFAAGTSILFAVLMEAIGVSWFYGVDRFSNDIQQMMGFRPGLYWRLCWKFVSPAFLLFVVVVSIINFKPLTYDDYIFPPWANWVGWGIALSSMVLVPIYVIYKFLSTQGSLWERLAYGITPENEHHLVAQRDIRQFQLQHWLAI

[3] = target: human ERG potassium channel (hERG) (Homo sapiens (Human), UniProt Q12809); assay: hERG tail current recording, Rapid ICE automated patch-clamp; assay type: cell-based; details: HEK293 cells stably transfected with hERG
human ERG potassium channel (hERG), sequence (Q12809 whole entry): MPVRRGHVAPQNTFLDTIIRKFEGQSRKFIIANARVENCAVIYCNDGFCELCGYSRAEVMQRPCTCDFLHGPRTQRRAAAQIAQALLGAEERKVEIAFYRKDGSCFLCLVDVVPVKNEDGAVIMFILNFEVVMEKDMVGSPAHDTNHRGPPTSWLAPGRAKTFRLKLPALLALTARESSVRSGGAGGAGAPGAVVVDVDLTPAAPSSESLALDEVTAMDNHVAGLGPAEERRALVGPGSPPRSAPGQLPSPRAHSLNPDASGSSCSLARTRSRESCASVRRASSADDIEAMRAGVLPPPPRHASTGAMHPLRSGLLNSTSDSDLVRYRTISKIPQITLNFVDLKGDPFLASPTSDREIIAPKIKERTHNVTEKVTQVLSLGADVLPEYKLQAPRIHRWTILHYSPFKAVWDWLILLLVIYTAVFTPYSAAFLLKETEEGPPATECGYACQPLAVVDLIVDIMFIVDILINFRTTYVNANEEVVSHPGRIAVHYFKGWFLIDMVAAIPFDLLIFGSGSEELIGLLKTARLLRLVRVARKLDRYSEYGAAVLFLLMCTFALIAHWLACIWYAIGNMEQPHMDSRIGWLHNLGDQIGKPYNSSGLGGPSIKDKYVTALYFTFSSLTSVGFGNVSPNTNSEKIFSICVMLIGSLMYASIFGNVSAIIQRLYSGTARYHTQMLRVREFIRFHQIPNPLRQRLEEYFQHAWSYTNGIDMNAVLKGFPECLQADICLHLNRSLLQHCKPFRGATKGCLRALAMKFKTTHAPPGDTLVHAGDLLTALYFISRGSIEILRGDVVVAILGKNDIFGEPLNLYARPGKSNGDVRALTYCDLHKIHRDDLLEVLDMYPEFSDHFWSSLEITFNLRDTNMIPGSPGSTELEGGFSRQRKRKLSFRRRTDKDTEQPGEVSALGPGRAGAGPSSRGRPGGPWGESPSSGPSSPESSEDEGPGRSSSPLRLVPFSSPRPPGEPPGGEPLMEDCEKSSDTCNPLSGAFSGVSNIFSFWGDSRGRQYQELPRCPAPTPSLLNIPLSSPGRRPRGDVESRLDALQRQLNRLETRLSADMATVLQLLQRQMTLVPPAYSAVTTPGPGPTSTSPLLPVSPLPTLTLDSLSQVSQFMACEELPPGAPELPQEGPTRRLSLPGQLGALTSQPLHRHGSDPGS
Protocol: Measure of the Effect on hERG Channel by Tail Current Recording Using In Vitro Rapid ICE™
The potency of the compounds of the invention in inhibiting human ERG potassium channel (hERG) tail current is assessed in a recombinant HEK293 cell line stably transfected with hERG cDNA using Rapid ICE™ (Rapid Ion Channel Electrophysiology) assay. Rapid ICE™ is an automated patch-clamp assay utilizing the PatchXpress 7000A system (Molecular Devices Corporation) or the QPatch HTX system (Sophion Bioscience A/S).
Briefly cells are cultivated for 24 to 72 hours before recordings in minimum essential medium supplemented with 10% FBS, 1% non-essential amino acids, 1% sodium pyruvate, 2 mM L-glutamine. The day of the experiment cells are detached with TrypLE and prepared to be loaded on the instrument. For PatchXpress cells are finally resuspended in 150 μl of Extracellular Buffer whereas for QPatch cells are resuspended in 7 ml Serum-Free Media containing 25 mM Hepes and Soybean trypsin inhibitor and immediately placed in the cell storage tank of the machine. The composition of the Extracellular Buffer is (mM): NaCl 137; KCl 4; CaCl2 1.8; MgCl2 1.0; D-glucose 10; N 2 hydroxyethylpiperazine-N′-2-ethanesulfonic acid (HEPES) 10; pH 7.4 with 1 M NaOH. The composition of the pipette solution is (mM): KCl 130; MgCl2 1.0; Ethylene glycol-bis(β-aminoethyl ether)-N,N,N′,N′-tetraacetic acid (EGTA) 5; MgATP 5; HEPES 10; pH 7.2 with 1 M KOH. The voltage protocol includes the following steps: step from −80 mV to −50 mV for 200 ms, +20 mV for 4.8 s, step to −50 mV for 5 s then step to the holding potential of −80 mV. Compounds of the invention are dissolved in DMSO and diluted in Extracellular Buffer to achieve final test concentrations (0.1, 1 and 10 μM) in 0.1% DMSO. The voltage protocol is run and recorded continuously during the experiment. The vehicle, corresponding to 0.1% DMSO in Extracellular Buffer, is then applied for 3 min followed by the test substance in triplicate. The standard combined exposure time is 5 min. The average of tail current amplitude values recorded from 4 sequential voltage pulses is used to calculate for each cell the effect of the test substance by calculating the residual current (% control) compared with vehicle pre-treatment. Data are reported as % inhibition for each concentration tested and IC50 values are estimated using DataXpress or QPatch software. At least two cells are tested, more if results diverge.

[4] = target: human serotonin transporter (SERT) (Homo sapiens (Human), UniProt P31645); assay: Scintillation Proximity Assay (SPA) competition binding, human SERT; details: recombinant hSERT-CHO membranes, [3H]citalopram
human serotonin transporter (SERT), sequence (P31645 whole entry): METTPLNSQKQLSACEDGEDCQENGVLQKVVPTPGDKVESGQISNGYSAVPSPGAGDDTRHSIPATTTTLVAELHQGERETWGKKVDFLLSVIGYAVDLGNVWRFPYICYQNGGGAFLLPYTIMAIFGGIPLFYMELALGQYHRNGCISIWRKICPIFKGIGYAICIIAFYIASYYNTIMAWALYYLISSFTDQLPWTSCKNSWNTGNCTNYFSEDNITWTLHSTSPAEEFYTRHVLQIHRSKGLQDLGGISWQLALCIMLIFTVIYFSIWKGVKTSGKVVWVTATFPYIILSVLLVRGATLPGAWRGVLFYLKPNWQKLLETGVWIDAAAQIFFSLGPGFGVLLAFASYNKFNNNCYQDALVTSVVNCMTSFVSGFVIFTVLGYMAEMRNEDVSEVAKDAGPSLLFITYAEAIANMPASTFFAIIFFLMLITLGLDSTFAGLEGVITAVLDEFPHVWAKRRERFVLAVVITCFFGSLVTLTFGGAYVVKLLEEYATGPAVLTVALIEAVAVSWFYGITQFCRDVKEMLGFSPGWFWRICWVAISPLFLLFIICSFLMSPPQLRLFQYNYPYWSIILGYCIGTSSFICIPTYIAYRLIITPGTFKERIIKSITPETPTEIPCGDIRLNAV

human dopamine transporter (DAT), sequence (Q01959 whole entry): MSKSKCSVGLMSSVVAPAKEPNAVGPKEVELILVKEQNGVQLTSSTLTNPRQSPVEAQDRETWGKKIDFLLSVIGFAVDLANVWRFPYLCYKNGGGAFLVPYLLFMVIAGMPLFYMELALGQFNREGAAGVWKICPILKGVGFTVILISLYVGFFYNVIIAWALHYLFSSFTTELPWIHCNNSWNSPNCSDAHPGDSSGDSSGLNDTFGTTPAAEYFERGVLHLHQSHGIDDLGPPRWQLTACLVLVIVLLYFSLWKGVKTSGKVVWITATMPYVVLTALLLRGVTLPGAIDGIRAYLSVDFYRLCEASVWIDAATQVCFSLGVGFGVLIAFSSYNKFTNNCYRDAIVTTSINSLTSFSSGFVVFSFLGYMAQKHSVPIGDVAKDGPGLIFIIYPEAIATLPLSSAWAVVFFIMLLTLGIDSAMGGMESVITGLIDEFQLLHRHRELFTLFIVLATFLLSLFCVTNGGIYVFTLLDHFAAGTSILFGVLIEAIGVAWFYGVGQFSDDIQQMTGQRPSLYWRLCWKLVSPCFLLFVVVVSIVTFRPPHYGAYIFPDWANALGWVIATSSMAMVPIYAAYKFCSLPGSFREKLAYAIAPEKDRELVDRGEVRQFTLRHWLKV

SMILES	pIC50 DAT [1]	pIC50 NET [2]	pIC50 hERG [3]	pIC50 SERT [4]	IC50 [3] [µM]	IC50 [4] [µM]
COc1cc(Oc2cccc(F)c2)nc(N2CCC3(CC2)CNCCO3)n1.Cl [Example 66, 9-[4-(3-fluorophenoxy)-6-methoxypyrimidin-2-yl]-1-oxa-4,9 diazaspiro[5.5]undecane hydrochloride]	8.29	6.52	5.7	5.27	–	–
O=C1COC2(CCN(c3nc(Oc4cccc(F)c4)cc(C(F)(F)F)n3)CC2)CN1 [Example 68, 9-[4-(3-fluorophenoxy)-6-(trifluoromethyl)pyrimidin-2-yl]-1-oxa-4,9-diazaspiro[5.5]undecan-3-one]	7.28	5.39	–	4.45	> 10	–
Cl.Fc1cccc(Oc2cc(C(F)(F)F)nc(N3CCC4(CC3)CNCC(F)(F)O4)n2)c1 [Example 70, 2,2-difluoro-9-[4-(3-fluorophenoxy)-6-(trifluoromethyl)pyrimidin-2-yl]-1-oxa-4,9-diazaspiro[5.5]undecane hydrochloride]	6.65	5.17	5.0	–	–	> 100
O=S1(=O)CCNCC12CCN(c1cc(F)c(F)cc1Oc1cccc(F)c1)CC2 [Example 71, 9-[4,5-difluoro-2-(3-fluorophenoxy)phenyl]-1λ^6-thia-4,9-diazaspiro[5.5]undecane-1,1-dione]	6.22	4.82	5.1	4.55	–	–
O=S1(=O)CCNCC12CCN(c1nc(Oc3cccc(F)c3)cc(C(F)(F)F)n1)CC2 [Example 72, 9-[4-(3-fluorophenoxy)-6-(trifluoromethyl)pyrimidin-2-yl]-1λ^6-thia-4,9-diazaspiro[5.5]undecane-1,1-dione]	7.08	4.92	5.5	–	–	> 100
Fc1cccc(Oc2cc(F)c(F)cc2N2CCC3(CCCNC3)CC2)c1 [Example 79, 9-[4,5-difluoro-2-(3-fluorophenoxy)phenyl]-2,9-diazaspiro[5.5]undecane]	7.86	6.31	6.1	6.49	–	–
Fc1cccc(Oc2cc(F)c(F)cc2N2CCC3(CCNCC3)CC2)c1 [Example 82, 3-[4,5-difluoro-2-(3-fluorophenoxy)phenyl]-3,9-diazaspiro[5.5]undecane]	8.14	6.10	6.0	8.00	–	–
Fc1cccc(Oc2cc(F)c(F)cc2N2CCC3(CNCCO3)C2)c1 (stereo not shown) [Example 83, 2-[4,5-difluoro-2-(3-fluorophenoxy)phenyl]-6-oxa-2,9-diazaspiro[4.5]decane]	7.24	6.76	6.2	6.40	–	–
Fc1cccc(Oc2cc(F)c(F)cc2N2CCC3(CCCNC3)C2)c1 (stereo not shown) [Example 84, 2-[4,5-difluoro-2-(3-fluorophenoxy)phenyl]-2,7-diazaspiro[4.5]decane]	7.94	6.76	6.6	6.33	–	–
Fc1cccc(Oc2cc(C(F)(F)F)nc(N3CCC4(CNCCC45OCCO5)C3)n2)c1 (stereo not shown) [Example 87, 8-[4-(3-fluorophenoxy)-6-(trifluoromethyl)pyrimidin-2-yl]-1,4-dioxa-8,12-diazadispiro[4.0.4^6.4^5]tetradecane]	8.67	6.82	6.0	5.43	–	–
O=C1NCC2(CCN(c3nc(Oc4cccc(F)c4)cc(C(F)(F)F)n3)CC2)O1 [Example 89, 8-[4-(3-fluorophenoxy)-6-(trifluoromethyl)pyrimidin-2-yl]-1-oxa-3,8-diazaspiro[4.5]decan-2-one]	7.73	5.66	5.7	4.89	–	–
Fc1cccc(Oc2cc(F)c(F)cc2N2CCC3(CCNCC3)C2)c1 [Example 90, 2-[4,5-difluoro-2-(3-fluorophenoxy)phenyl]-2,8-diazaspiro[4.5]decane]	8.36	6.85	6.1	6.31	–	–
Fc1cccc(Oc2cc(F)c(F)cc2N2CCC3(CCNC3)CC2)c1 [Example 91, 8-[4,5-difluoro-2-(3-fluorophenoxy)phenyl]-2,8-diazaspiro[4.5]decane]	8.01	6.26	5.9	7.29	–	–
Fc1cccc(Oc2cc(F)cc(N3CCC4(CCNC4)CC3)c2)c1 [Example 92, 8-[3-fluoro-5-(3-fluorophenoxy)phenyl]-2,8-diazaspiro[4.5]decane]	8.84	7.33	6.2	7.37	–	–
Fc1cccc(Oc2cc(F)c(F)cc2N2CCC3(CCNCC34OCCO4)C2)c1 (stereo not shown) [Example 93, 8-[4,5-difluoro-2-(3-fluorophenoxy)phenyl]-1,4-dioxa-8,13-diazadispiro[4.0.4^6.4^5]tetradecane]	8.44	6.64	6.0	6.90	–	–
Cl.Fc1cccc(Oc2cc(C(F)(F)F)nc(N3CCC4(CCNCC45OCCO5)C3)n2)c1 (stereo not shown) [Example 95, 8-[4-(3-fluorophenoxy)-6-(trifluoromethyl)pyrimidin-2-yl]-1,4-dioxa-8,13-diazadispiro[4.0.4^6.4^5]tetradecane hydrochloride]	8.16	6.09	5.6	6.29	–	–
